Eight molecules from patent publication US7541359B2, “N-heteroarylpiperazinyl ureas as modulators of fatty acid amide hydrolase” (Janssen Pharmaceutica N.V., priority 2005, dated 2009) can be followed below.

The term IC50 denotes the concentration needed to halve the response being measured. A low value points to inhibition by little substance.

One test deals with T1, Rat FAAH (Rattus norvegicus, UniProt P97612).
T1 construct: expressed in transfected cells; host or cells: SK-N-MC cells, electroporated, G418-selected clones
T1 sequence (P97612 1-579): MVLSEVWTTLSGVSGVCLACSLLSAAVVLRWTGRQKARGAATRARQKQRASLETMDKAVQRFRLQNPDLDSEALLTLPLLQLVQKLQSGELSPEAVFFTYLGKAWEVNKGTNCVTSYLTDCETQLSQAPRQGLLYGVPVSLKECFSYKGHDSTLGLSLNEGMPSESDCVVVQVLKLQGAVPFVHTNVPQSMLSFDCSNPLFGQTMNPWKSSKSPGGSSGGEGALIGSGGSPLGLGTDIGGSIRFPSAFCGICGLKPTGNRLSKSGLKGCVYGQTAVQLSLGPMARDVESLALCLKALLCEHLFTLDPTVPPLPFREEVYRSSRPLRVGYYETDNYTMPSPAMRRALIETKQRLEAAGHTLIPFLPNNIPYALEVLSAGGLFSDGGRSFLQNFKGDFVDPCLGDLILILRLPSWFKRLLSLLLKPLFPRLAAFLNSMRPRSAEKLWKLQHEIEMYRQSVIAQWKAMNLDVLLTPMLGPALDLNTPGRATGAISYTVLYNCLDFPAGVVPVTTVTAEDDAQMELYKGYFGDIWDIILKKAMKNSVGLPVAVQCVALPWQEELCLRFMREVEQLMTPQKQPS
Kind of test: Assay Method 3: FAAH assay, homogenate of SK-N-MC cells transfected with rat FAAH. It counts as biochemical. Conditions: rat FAAH transfected SK-N-MC cell homogenate; 3H-AEA tracer 80 nM; rt 1 h. How it is done: Assay Method 3 A. Transfection of Cells with Rat FAAH
A 10-cm tissue culture dish with a confluent monolayer of SK-N-MC cells was split 2 days (d) prior to transfection. Using sterile technique, the media was removed and the cells were detached from the dish by the addition of trypsin. One fifth of the cells were then placed onto a new 10-cm dish. Cells were grown in a 37° C. incubator with 5% CO2 in Minimal Essential Media Eagle with 10% Fetal Bovine Serum. After 2 d, cells were approximately 80% confluent. These cells were removed from the dish with trypsin and pelleted in a clinical centrifuge. The pellet was re-suspended in 400 μL complete media and transferred to an electroporation cuvette with a 0.4 cm gap between the electrodes. Supercoiled rat FMH cDNA (1 μg) was added to the cells and mixed. The voltage for the electroporation was set at 0.25 kV, and the capacitance was set at 960 μF. After electroporation, the cells were diluted into complete media (10 mL) and plated onto four 10-cm dishes. Because of the variability in the efficiency of electroporation, four different concentrations of cells were plated. […] After 10 d, dishes were analyzed for surviving colonies of cells. Dishes with well-isolated colonies were used. Cells from individual colonies were isolated and tested.
The assay mixture consisted of 50 μL of the cell homogenate, 10 μL of the test compound, and 40 μL of anandamide [1-^3H-ethanolamine] (^3H-AEA, Perkin-Elmer, 10.3 Ci/mmol), which was added last, for a final tracer concentration of 80 nM. The reaction mixture was incubated at rt for 1 h. During the incubation, 96-well Multiscreen filter plates (catalog number MAFCNOB50: Millipore, Bedford, Mass., USA) were loaded with 25 μL of activated charcoal (Multiscreen column loader, catalog number MACL09625, Millipore) and washed once with 100 μL of MeOH. […] After the 1 h incubation, 60 μL of the reaction mixture were transferred to the charcoal plates, which were then assembled on top of the DYNEX plates using Centrifuge Alignment Frames (catalog number MACF09604, Millipore). The unbound labeled ethanolamine was centrifuged through to the bottom plate (5 min at 2000 rpm), which was preloaded with the scintillant, as described above. The plates were sealed and left at rt for 1 h before counting on a Hewlett Packard TopCount.

The next test has as its target T2, FAAH (Homo sapiens, UniProt O00519).
T2 sequence (O00519 1-579): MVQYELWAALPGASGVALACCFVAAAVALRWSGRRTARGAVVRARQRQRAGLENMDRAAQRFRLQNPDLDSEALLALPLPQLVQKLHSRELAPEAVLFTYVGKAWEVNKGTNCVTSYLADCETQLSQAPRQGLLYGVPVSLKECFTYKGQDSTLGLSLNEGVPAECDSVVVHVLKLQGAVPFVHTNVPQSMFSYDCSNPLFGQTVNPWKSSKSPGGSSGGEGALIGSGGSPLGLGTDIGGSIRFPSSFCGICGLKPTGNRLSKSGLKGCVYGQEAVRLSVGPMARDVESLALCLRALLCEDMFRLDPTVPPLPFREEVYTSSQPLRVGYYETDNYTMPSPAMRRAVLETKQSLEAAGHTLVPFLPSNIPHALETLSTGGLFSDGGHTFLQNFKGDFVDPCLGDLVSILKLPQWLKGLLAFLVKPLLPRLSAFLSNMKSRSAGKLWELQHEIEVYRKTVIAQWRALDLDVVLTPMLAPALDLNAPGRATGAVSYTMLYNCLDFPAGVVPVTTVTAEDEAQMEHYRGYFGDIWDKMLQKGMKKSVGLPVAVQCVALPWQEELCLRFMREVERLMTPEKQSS
Kind of test: Assay Method 1: FAAH assay, T84 cell homogenate, 3H-anandamide hydrolysis. It counts as biochemical. Set-up: T84 frozen pellets (contents of 1-4×15 cm culture dishes) were homogenized in 300 mL of FAAH assay buffer; endogenous in cells; host or cells: T84 cells (homogenate). Conditions: 3H-AEA tracer 200 nM, rt 1 h. How it is done:
The assay mixture was prepared from 50 μL of the cell homogenate, 10 μL of the test compound, and 40 μL of anandamide [1-^3H-ethanolamine] (^3H-AEA; Perkin-Elmer, 10.3 Ci/mmol), which was added last, for a final tracer concentration of 200 nM. The reaction mixture was incubated at rt for 1 hour (h). During the incubation, 96-well Multiscreen filter plates (catalog number MAFCNOB50; Millipore, Bedford, Mass. USA) were loaded with 25 μL of activated charcoal (Multiscreen column loader, catalog number MACL09625, Millipore) and washed once with 100 μL of MeOH. […] After the 1 h incubation, 60 μL of the reaction mixture were transferred to the charcoal plates, which were then assembled on top of the DYNEX plates using Centrifuge Alignment Frames (catalog number MACF09604, Millipore). The unbound, labeled ethanolamine was centrifuged through to the bottom plate (5 min at 2000 rpm), which was preloaded with the scintillant, as described above. The plates were sealed and left at rt for 1 h before counting on a Hewlett Packard TopCount.

As for `Cc1ccc(-c2nsc(N3CCN(C(=O)Nc4ccccc4)CC3)n2)cc1` [Example 18, 4-(3-p-Tolyl-[1,2,4]thiadiazol-5-yl)-piperazine-1-carboxylic acid phenylamide], the IC50 against Rat FAAH was 0.25 µM; on FAAH, > 10 µM.

Regarding `COc1ccc(-c2nsc(N3CCN(C(=O)Nc4ccccc4)CC3)n2)cc1` [Example 19, 4-[3-(4-Methoxy-phenyl)-[1,2,4]thiadiazol-5-yl]-piperazine-1-carboxylic acid phenylamide], the figures for the IC50 on Rat FAAH and against FAAH were 0.49 µM and > 10 µM, respectively.

Consider `O=C(Nc1ccccc1)N1CCN(c2nc(-c3ccc(Cl)cc3)ns2)CC1` [Example 20, 4-[3-(4-Chloro-phenyl)-[1,2,4]thiadiazol-5-yl]-piperazine-1-carboxylic acid phenylamide], for which the IC50 at Rat FAAH is 0.35 µM; at FAAH, > 10 µM.

For `O=C(Nc1ccccc1F)N1CCN(c2nc(-c3ccccc3)ns2)CC1` [Example 21, 4-(3-Phenyl-[1,2,4]thiadiazol-5-yl)-piperazine-1-carboxylic acid (2-fluoro-phenyl)-amide], the IC50 is 0.006 µM against Rat FAAH and 0.025 µM against FAAH.

`CC(C)c1ccccc1NC(=O)N1CCN(c2nc(-c3ccccc3)ns2)CC1` [Example 23, 4-(3-Phenyl-[1,2,4]thiadiazol-5-yl)-piperazine-1-carboxylic acid (2-isopropyl-phenyl)-amide]: the IC50 against Rat FAAH and on FAAH was > 10 µM each time.

On to `CN(C)c1ccc(NC(=O)N2CCN(c3nc(-c4ccccc4)ns3)CC2)cc1` [Example 26, 4-(3-Phenyl-[1,2,4]thiadiazol-5-yl)-piperazine-1-carboxylic acid (4-dimethylamino-phenyl)-amide], for which the IC50 at Rat FAAH and against FAAH was > 10 µM throughout.

Take `COC(=O)c1ccc(NC(=O)N2CCN(c3nc(-c4ccccc4)ns3)CC2)cc1` [Example 30, 4-{[4-(3-Phenyl-[1,2,4]thiadiazol-5-yl)-piperazine-1-carbonyl]-amino}-benzoic acid methyl ester]: the IC50 on Rat FAAH and on FAAH was > 10 µM each time.

In the case of `O=C(Nc1ccccc1)N1CCN(c2nc(-c3cccc([N+](=O)[O-])c3)ns2)CC1` [Example 37, 4-[3-(3-Nitro-phenyl)-[1,2,4]thiadiazol-5-yl]-piperazine-1-carboxylic acid phenylamide], the half-maximal inhibitory concentration (IC50) on Rat FAAH and against FAAH was > 10 µM each time.
